In paper PMC11494503, “Next Generation SICLOPPS Screening for the Identification of Inhibitors of the HIF-1α/HIF-1β Protein–Protein Interaction” (ACS Chemical Biology, 2024):

Test system: HIF-1
Assay: HIF-1-dependent luciferase reporter assay in U2OS-HRE-Luc cells in hypoxia
Format: cell-based, human
Conditions: 16 h in hypoxia; for reduction in luminescence: 40 μM
Protocol: HIF Luciferase Reporter Assays
Assays were conducted in previously reported U2OS-HRE-Luciferase (U2OS-HRE-Luc) cells.2 Upon reaching 80-90% confluency, U2OS-HRE-Luc were plated (10 000 cells/well) in 96-well plates (Perkin-Elmer) and incubated in a cell incubator for 16 h. The cells were treated with cyclic peptide at […]
manufacturer’s protocol. […] The

Compound | luciferase signal reduction (20 μM) [%] | reduction in luminescence [%] | IC50 (multiple doses, read-out: IC50 of reduction in the hypoxia-mediated luciferase signal) [µM]
CC(C)C[C@@H]1NC(=O)[C@H](CS)NC(=O)[C@H](Cc2ccccc2)NC(=O)[C@H](CC(C)C)NC(=O)[C@H](CC(C)C)NC(=O)[C@H](CSSC[C@H](N)C(=O)NCC(=O)N[C@@H](CCCNC(=N)N)C(=O)N[C@@H](CCCCN)C(=O)N[C@@H](CCCCN)C(=O)N[C@@H](CCCNC(=N)N)C(=O)N[C@@H](CCCNC(=N)N)C(=O)N[C@@H](CCC(N)=O)C(=O)N[C@@H](CCCNC(=N)N)C(=O)N[C@@H](CCCNC(=N)N)C(=O)N[C@@H](CCCNC(=N)N)C(=O)N2CCC[C@H]2C(=O)N2CCC[C@H]2C(=O)N[C@@H](CCC(N)=O)C(=O)O)NC1=O [Tat-cyclo-CLLFCL] | 70 | 84 | 13 ± 4
Tat-cyclo-CLLFVY [reference compound] |  | 28 | 
